Calls of active or inactive are those of the source. How the calls were made is not given here.

For the test, the target named is GTPase HRas, activated mutant (human). Nature of the test: inhibitors of GTP binding, activated Ras, SAR follow-up, biochemical, additional analogs, activated mutant, multiplex flow cytometry, Ki (AID 2043). To be noted: bead-based flow cytometry multiplex, fluorescent GTP binding; for Ki: measured here: Ki derived from EC50.

In the case of `O=C(C#Cc1ccccc1)c1ccccc1[N+](=O)[O-]`, the EC50 result was “inactive” and the inhibitory constant (Ki) worked out at 0.56 µM.
As for `O=C(C#Cc1ccccc1)c1ccc(F)cc1`, the EC50 result is “inactive” and the Ki was determined as 1.34 µM.
For `CC(C(=O)O)c1cccc(C(=O)c2ccccc2)c1` (stereo unspecified), the EC50 result is “inactive” and the Ki was found to be 0.03 µM.

The values above are taken from PubChem BioAssay AID2043 (NMMLSC, 2009).
